# Calls of active or inactive are those of the source. No cut-off for these calls is given here.
# Legend:
# Format in all cases: functional
# Escherichia coli [1] = assay: Antimicrobial activity against Escherichia coli assessed as reduction of microbial growth
# Pseudomonas aeruginosa [2] = assay: Antimicrobial activity against Pseudomonas aeruginosa assessed as reduction of microbial growth
# Staphylococcus aureus [3] = assay: Antimicrobial activity against Staphylococcus aureus assessed as reduction of microbial growth
# Escherichia coli [4] = assay: Antimicrobial activity against Escherichia coli assessed as reduction of microbial growth incubated for 18 to 24 hrs by microdilution method; details: time 18-24 hrs
# Pseudomonas aeruginosa [5] = assay: Antimicrobial activity against Pseudomonas aeruginosa assessed as reduction of microbial growth incubated for 18 to 24 hrs by microdilution method; details: time 18-24 hrs
# Staphylococcus aureus [6] = assay: Antimicrobial activity against Staphylococcus aureus assessed as reduction of microbial growth incubated for 18 to 24 hrs by microdilution method; details: time 18-24 hrs
# Escherichia coli [7] = assay: Antimicrobial activity against Escherichia coli
# Pseudomonas aeruginosa [8] = assay: Antimicrobial activity against Pseudomonas aeruginosa
# Staphylococcus aureus [9] = assay: Antimicrobial activity against Staphylococcus aureus
# Staphylococcus aureus [10] = assay: Antimicrobial activity against Staphylococcus aureus assessed as reduction of microbial growth incubated for 24 hrs
# Escherichia coli [11] = assay: Antimicrobial activity against Escherichia coli assessed as reduction of microbial growth incubated for 24 hrs
# Pseudomonas aeruginosa [12] = assay: Antimicrobial activity against Pseudomonas aeruginosa assessed as reduction of microbial growth incubated for 24 hrs
# Escherichia coli [13] = assay: Antimicrobial activity against Escherichia coli D21 assessed as reduction of microbial growth; details: time 24 hrs
# Pseudomonas aeruginosa [14] = assay: Antimicrobial activity against Pseudomonas aeruginosa OT97 assessed as reduction of microbial
# Staphylococcus aureus [15] = assay: Antimicrobial activity against Staphylococcus aureus Cowan 1 assessed as reduction of microbial
Substance,MIC (Escherichia coli [4]) [µg/mL],MIC (Pseudomonas aeruginosa [5]) [µg/mL],MIC (Staphylococcus aureus [6]) [µg/mL],LD (Escherichia coli [7]) [µM],LD (Pseudomonas aeruginosa [8]) [µM],LD (Staphylococcus aureus [9]) [µM],also measured
H-GIGKFLHSAKKFGKAFVGEIMNS-NH2,–,–,–,–,–,–,MIC (Escherichia coli [1]): 128 µg/mL; MIC (Pseudomonas aeruginosa [2]): 256 µg/mL; MIC (Staphylococcus aureus [3]): > 256 µg/mL
H-GIGKFLHSAKKFGKAFVGEIMNS-OH [MAGAININ 2],50,50,≥ 100,–,–,–,MIC (Escherichia coli [1]): 1 µg/mL; MIC (Pseudomonas aeruginosa [2]): inactive; MIC (Staphylococcus aureus [3]): inactive
H-GIGKFLHSAKKFGKAFVGEIMNSKKKKKKKKKK-OH,50,3.1,3.1,–,–,–,–
H-KFLHSAKKFGKAFVGEIMNS-OH,–,–,–,–,–,–,MIC (Escherichia coli [1]): 20 µg/mL; MIC (Pseudomonas aeruginosa [2]): inactive; MIC (Staphylococcus aureus [3]): inactive
H-KKKKKKKKKKGIGKFLHSAKKFGKAFVGEIMNS-OH,6.25,6.25,12.5,–,–,–,–
H-KWKLFKKGIGAVLKV-OH,–,–,–,4,15,29,–
H-KWKLFKKIEKVGQNIRDGGIGAVLKV-OH,–,–,–,–,–,–,LD (Staphylococcus aureus [10]): 600 µM; LD (Escherichia coli [11]): 1 µM; LD (Pseudomonas aeruginosa [12]): 15 µM
H-KWKLFKKIGAVLKVL-OH,–,–,–,1,4,2,–
H-KWKLFKKIGIGAVLKVLK-OH,–,–,–,0.5,3,7,–
H-KWKLFKKIGIGAVLKVLKTTGLPALI-OH,–,–,–,–,–,–,LD (Escherichia coli [13]): 0.3 µM; LD (Pseudomonas aeruginosa [14]): 0.7 µM; LD (Staphylococcus aureus [15]): 1 µM
H-KWKLFKKVLKVLTTG-OH,–,–,–,0.5,2,8,–
H-RRRRRRRRRRGIGKFLHSAKKFGKAFVGEIMNS-OH,3.12,6.25,25,–,–,–,–

# From ChEMBL document CHEMBL5321224, “Antimicrobial peptides: Structure, mechanism, and modification” (2023)
